Where only a bound is given, the exact number is not on record here.

In general, Ki refers to the dissociation constant of the complex between target and ligand, obtained from inhibition or displacement. As usually defined, the IC50 is the concentration at which inhibition is half-maximal. The term Papp A→B denotes the apparent permeability from the apical to the basolateral side of a cell layer.

Data set [1] has as its target Cyclin-dependent kinase 2/cyclin E1 (Homo sapiens, UniProt P24941). The data set is described as follows: Binding affinity to CDK2/Cyclin E1 (unknown origin) using Ulight-MBP as substrate assessed as inhibition constant preincubated for 30 mins followed by substrate addition measured after 90 mins in presence of ATP by TR-FRET assay. The class given is protein-complex assay. On the technique in general: TR-FRET usually uses a lanthanide donor and a delayed reading to cut background.

Data set [2] in a line: Selectivity ratio of Ki for ERK2 (unknown origin) to Ki for CDK2/Cyclin E1 (unknown origin).
Data set [3] in a line: Metabolic stability in mouse liver microsomes assessed as clearance at 1 uM incubated upto 180 mins by LC/MS-MS analysis. The class given is ADME, Microsome. For orientation: Liver microsomes are a subcellular fraction often used to study metabolism.
Data set [4] can be described thus: Metabolic stability in human liver microsomes assessed as clearance at 1 uM incubated upto 180 mins by LC/MS-MS analysis. The class given is ADME, Microsome.
Data set [5] in a line: Selectivity ratio of Ki for CDK4/Cyclin D3 (unknown origin) to Ki for CDK2/Cyclin E1 (unknown origin).
Data set [6] can be described thus: Antiproliferative activity against human OVISE cells assessed as inhibition of cell division incubated for 16 hrs by EdU incorporation assay. Type of data set: functional, cell-based.
Data set [7] can be described thus: Apparent permeability across apical to basolateral side in MDCK cells at 5 uM measured for 60 to 180 mins by LC-MS/MS analysis. Type of data set: ADME, cell-based, Canis lupus familiaris. As to conditions: dog, time 60-180 min.
Data set [8] can be described thus: Selectivity ratio of IC50 for human SK-OV-3 cells to IC50 for human OVISE cells. Type of data set: functional.
The target in data set [9] is Mitogen-activated protein kinase 1 (Homo sapiens, UniProt P28482). In words: Binding affinity to ERK2 (unknown origin) using Ulight-MBP as substrate assessed as inhibition constant preincubated for 30 mins followed by substrate addition measured after 90 mins in presence of ATP by TR-FRET assay.
Sequence of Mitogen-activated protein kinase 1 (P28482 whole entry): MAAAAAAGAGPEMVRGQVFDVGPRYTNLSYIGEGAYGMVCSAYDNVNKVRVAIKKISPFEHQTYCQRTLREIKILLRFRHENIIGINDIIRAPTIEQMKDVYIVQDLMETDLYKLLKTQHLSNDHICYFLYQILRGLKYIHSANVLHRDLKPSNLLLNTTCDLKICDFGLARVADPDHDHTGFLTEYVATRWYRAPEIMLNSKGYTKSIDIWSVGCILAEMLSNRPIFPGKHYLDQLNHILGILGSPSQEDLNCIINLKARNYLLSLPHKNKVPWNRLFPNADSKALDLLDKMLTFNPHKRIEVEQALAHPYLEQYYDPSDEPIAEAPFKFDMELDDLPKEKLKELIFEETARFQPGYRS

Regarding `O=C(c1ccc2cnc(NC3CCOCC3)cc2n1)N1CCCCCC1`, the Ki in [1] came out at 240 nM. Further, the Ratio Ki in [2] amounted to 28.
On to `C[C@H]1CCN1C(=O)c1ccc2cnc(NC3CCN(S(C)(=O)=O)CC3)nc2c1`, for which the Ki in data set [1] turned out to be 0.13 nM. Moreover, the values for the CLhep predicted at 1 µM in [3] and in data set [4] were under 14 mL/min/kg and under 3.9 mL/min/kg, respectively. The Ratio Ki in [5] was found to be 16.
As to `O=C(c1ccc2cnc(NC3CCOCC3)cc2n1)N1CCCC1`, the Ki in data set [1] turned out to be 88 nM. For the same molecule, in data set [2], the Ratio Ki was 6.8.
As to `CNS(=O)(=O)c1ccc(Nc2ncc3ccc(C(=O)N4CCC[C@@H]4C)cc3n2)c(C)c1`, the Ki in data set [1] was 0.16 nM. The CLhep predicted at 1 µM in [3] was 75 mL/min/kg; in data set [4] it was 18 mL/min/kg. In addition, the Ratio Ki amounted to 4800 in data set [2] and 813 in data set [5].
Regarding `C[C@@]1(O)CCC[C@H]1n1c(=O)c(C(F)F)cc2cnc(NC3CCN(S(C)(=O)=O)CC3)nc21` [EBVACICLIB], in [6], the IC50 worked out at 46 nM.
In the case of `CS(=O)(=O)N1CCC(Nc2ncc3ccc(C(=O)N4CCCC4)cc3n2)CC1`, the Ki in data set [1] is 9 nM. The CLhep predicted at 1 µM was 20 mL/min/kg in data set [3] and under 3.9 mL/min/kg in data set [4]. In addition, the Ratio Ki in [2] came to 330; in [5], 16.
As for `CNS(=O)(=O)c1ccc(Nc2ncc3ccc(C(=O)N4C[C@@H](F)C[C@@H]4C)nc3n2)c(F)c1`, the Ki in data set [1] is 1.1 nM. Besides, the CLhep predicted at 1 µM in data set [3] was 56 mL/min/kg; in [4], 13 mL/min/kg. Further, the Papp A→B at 5 µM in [7] turned out to be 4.9 ×10⁻⁶ cm/s. Moreover, the “Ratio IC50” value in data set [8] was 38. In addition, the IC50 in [6] came out at 260 nM. Further, in [5], the Ratio Ki stood at 155.
As to `O=C(N[C@H](CO)c1ccc(Cl)c(F)c1)c1ccc2cnc(NC3CCOCC3)cc2n1`, the figures for the Ki in [1] and in data set [9] were 11 nM and 0.36 nM, respectively.
Take `O=C(N[C@H](CO)c1ccc(Cl)c(F)c1)c1ccc2cnc(NC3CCOCC3)nc2c1`: the Ki worked out at 7.9 nM in data set [1] and 0.22 nM in data set [9].
With `CNS(=O)(=O)c1ccc(Nc2ncc3ccc(C(=O)N4C[C@@H](F)[C@@H]4C)nc3n2)c(F)c1`, the Ki in data set [1] is 0.21 nM. Moreover, the CLhep predicted at 1 µM was 50 mL/min/kg in data set [3] and 17 mL/min/kg in data set [4]. Also, the Papp A→B at 5 µM in data set [7] was determined as 15 ×10⁻⁶ cm/s. In data set [8], the “Ratio IC50” value was determined as 88. In addition, in data set [6], the half-maximal inhibitory concentration (IC50) is 33 nM. In addition, the Ratio Ki in [5] came out at 271.
Take `O=C(c1ccc2cnc(NC3CCOCC3)cc2n1)N1CCC1`: in data set [1], the Ki amounted to 13 nM. Further, in data set [2], the Ratio Ki amounted to 1.8.
As to `CC1CCCCN1C(=O)c1ccc2cnc(NC3CCOCC3)cc2n1` (racemic), in data set [1], the Ki amounted to 750 nM. Besides, the Ratio Ki in data set [2] is 13.
Consider `C[C@@H]1CCCN1C(=O)c1ccc2cnc(NC3CCN(S(C)(=O)=O)CC3)nc2c1`, for which, in [1], the Ki turned out to be 0.17 nM. Besides, the CLhep predicted at 1 µM in data set [3] was 37 mL/min/kg; in [4], under 3.9 mL/min/kg. Further, the Ratio Ki is over 10000 in data set [2] and 55 in data set [5].
Consider `CNS(=O)(=O)c1ccc(Nc2ncc3ccc(C(=O)N4CCC[C@@H]4C)cc3n2)cc1`, for which the Ki in data set [1] was 0.34 nM. For the same molecule, the CLhep predicted at 1 µM in data set [3] was 76 mL/min/kg; in [4], 19 mL/min/kg. Also, the results for the Ratio Ki in [2] and in data set [5] were 850 and 150, respectively.
Consider `Cc1cc(S(C)(=O)=O)ccc1Nc1ncc2ccc(C(=O)N3CCC[C@@H]3C)cc2n1`, for which, in data set [1], the Ki was 17 nM. In addition, the CLhep predicted at 1 µM is 58 mL/min/kg in data set [3] and 13 mL/min/kg in data set [4]. For the same molecule, the Ratio Ki in data set [2] was 310; in [5], 42.
For the molecule `CNS(=O)(=O)c1ccc(Nc2ncc3ccc(C(=O)N4C[C@@H](F)C[C@@H]4C)nc3n2)c(C)c1`, the Ki in data set [1] turned out to be 0.63 nM. Further, the CLhep predicted at 1 µM was 19 mL/min/kg in data set [3] and 12 mL/min/kg in data set [4]. Besides, the Papp A→B at 5 µM in data set [7] turned out to be 1.6 ×10⁻⁶ cm/s. In addition, the “Ratio IC50” value in [8] is 48. The IC50 in data set [6] amounted to 250 nM. In addition, the Ratio Ki in data set [5] was 270.
Take `O=C(N[C@H](CO)c1ccc(Cl)c(F)c1)c1ccc2cnc(NC3CCOCC3)nc2n1`: the Ki in data set [1] was 6.5 nM; in data set [9], 0.17 nM.
Consider `CNS(=O)(=O)c1ccc(Nc2ncc3ccc(C(=O)N4C[C@H](F)C[C@@H]4C)cc3n2)c(C)c1`, for which, in data set [1], the Ki came out at 8.7 nM. In addition, the CLhep predicted at 1 µM was 67 mL/min/kg in data set [3] and 14 mL/min/kg in [4]. The “Ratio IC50” value in data set [8] was 13. The concentration for half-maximal inhibition (IC50) in data set [6] is 1500 nM. In [5], the Ratio Ki was 72.
Consider `CNS(=O)(=O)c1ccc(Nc2ncc3ccc(C(=O)N4C[C@@H](O)[C@@H]4C)nc3n2)c(F)c1`, for which, in [1], the Ki was 1 nM. In addition, the CLhep predicted at 1 µM in data set [3] was under 14 mL/min/kg; in data set [4] it was under 3.9 mL/min/kg. Moreover, the Papp A→B at 5 µM in data set [7] was under 1 ×10⁻⁶ cm/s. Besides, the “Ratio IC50” value in [8] is 47. Besides, the IC50 in data set [6] is 430 nM. For the same molecule, the Ratio Ki in data set [5] was found to be 89.
In the case of `CNS(=O)(=O)c1ccc(Nc2ncc3ccc(C(=O)N4C[C@H](F)[C@@H]4C)nc3n2)c(F)c1`, the Ki in data set [1] was 2.1 nM. The values for the CLhep predicted at 1 µM in [3] and in data set [4] were 54 mL/min/kg and 19 mL/min/kg, respectively. For the same molecule, in data set [7], the Papp A→B at 5 µM came to 13 ×10⁻⁶ cm/s. Also, the “Ratio IC50” value in data set [8] was determined as 36. Also, the IC50 in data set [6] worked out at 360 nM. For the same molecule, in data set [5], the Ratio Ki came to 41.
In the case of `COCc1cc(C(=O)Nc2cc([C@H]3CC[C@@H](OC(=O)NC(C)C)C3)[nH]n2)n(C)n1` [TEGTOCICLIB], the IC50 in data set [6] is 160 nM.
Turning to `CNS(=O)(=O)c1ccc(Nc2ncc3ccc(C(=O)N4C[C@@H](F)C[C@@H]4C)cc3n2)c(C)c1`, the Ki in data set [1] was 0.49 nM. The CLhep predicted at 1 µM in data set [3] is 69 mL/min/kg; in data set [4] it was 16 mL/min/kg. In addition, the Papp A→B at 5 µM in data set [7] is 12 ×10⁻⁶ cm/s. The “Ratio IC50” value in [8] came out at 43. In addition, the IC50 in data set [6] was 130 nM. Moreover, the Ratio Ki in data set [5] was found to be 155.
As to `O=C(c1ccc2cnc(NC3CCOCC3)cc2n1)N1CCCCC1`, the Ki in data set [1] came to 920 nM. Moreover, the Ratio Ki in data set [2] came to 4.3.
Take `C[C@H]1CCCN1C(=O)c1ccc2cnc(NC3CCN(S(N)(=O)=O)CC3)nc2c1`: the Ki in data set [1] was 0.18 nM. Also, the CLhep predicted at 1 µM was 30 mL/min/kg in [3] and under 3.9 mL/min/kg in data set [4]. Moreover, the Ratio Ki in data set [2] was determined as 2800; in data set [5], 78.
As for `C[C@H]1CCCN1C(=O)c1ccc2cnc(NC3CCN(S(C)(=O)=O)CC3)nc2c1`, the Ki in data set [1] worked out at 71 nM. Also, the results for the CLhep predicted at 1 µM in [3] and in data set [4] were 42 mL/min/kg and under 3.9 mL/min/kg, respectively. In addition, the Ratio Ki in data set [2] came to 110; in [5] it was 4.2.

(Values after ChEMBL document CHEMBL5365513, “Discovery of Selective Tertiary Amide Inhibitors of Cyclin-Dependent Kinase 2 (CDK2)” (ACS Med Chem Lett, 2023).)
